Measurements published in ChEMBL document CHEMBL1201862, “PubChem BioAssay data set” (2004).
Activity calls are given as the source filed them.

Tests used:
[1] = target: Melanocortin receptor 4 (Homo sapiens, UniProt P32245); format: functional, cell-based;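 also: Cell-based assay with luminescence read-out, confirmatory dose-response testing for agonist activity of biased ligands at MC4R; human U2OS cells with tagged receptor and beta-arrestin; potency of agonists that increase receptor coupling to beta-arrestin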
Chain of Melanocortin receptor 4 (P32245 whole entry): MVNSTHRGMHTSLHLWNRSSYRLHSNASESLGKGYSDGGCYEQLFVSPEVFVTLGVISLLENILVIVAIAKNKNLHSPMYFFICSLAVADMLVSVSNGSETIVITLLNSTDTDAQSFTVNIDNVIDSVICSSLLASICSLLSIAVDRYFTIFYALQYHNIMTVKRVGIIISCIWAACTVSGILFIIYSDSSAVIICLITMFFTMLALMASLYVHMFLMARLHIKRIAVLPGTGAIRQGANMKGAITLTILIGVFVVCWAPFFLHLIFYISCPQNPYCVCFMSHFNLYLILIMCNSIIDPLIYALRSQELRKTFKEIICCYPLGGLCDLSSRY

[2] = target: T1, Short transient receptor potential channel 4 (Mus musculus, UniProt Q9QUQ5); test: block of DAMGO-driven TRPC4 calcium entry – cell-based, HEK293 TRPC4/mu-opioid, Fluo-4 calcium, dose response (AID 434942); format: functional;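 also: potency of inhibitors blocking the TRPC4 calcium response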
T1 sequence (Q9QUQ5 whole entry): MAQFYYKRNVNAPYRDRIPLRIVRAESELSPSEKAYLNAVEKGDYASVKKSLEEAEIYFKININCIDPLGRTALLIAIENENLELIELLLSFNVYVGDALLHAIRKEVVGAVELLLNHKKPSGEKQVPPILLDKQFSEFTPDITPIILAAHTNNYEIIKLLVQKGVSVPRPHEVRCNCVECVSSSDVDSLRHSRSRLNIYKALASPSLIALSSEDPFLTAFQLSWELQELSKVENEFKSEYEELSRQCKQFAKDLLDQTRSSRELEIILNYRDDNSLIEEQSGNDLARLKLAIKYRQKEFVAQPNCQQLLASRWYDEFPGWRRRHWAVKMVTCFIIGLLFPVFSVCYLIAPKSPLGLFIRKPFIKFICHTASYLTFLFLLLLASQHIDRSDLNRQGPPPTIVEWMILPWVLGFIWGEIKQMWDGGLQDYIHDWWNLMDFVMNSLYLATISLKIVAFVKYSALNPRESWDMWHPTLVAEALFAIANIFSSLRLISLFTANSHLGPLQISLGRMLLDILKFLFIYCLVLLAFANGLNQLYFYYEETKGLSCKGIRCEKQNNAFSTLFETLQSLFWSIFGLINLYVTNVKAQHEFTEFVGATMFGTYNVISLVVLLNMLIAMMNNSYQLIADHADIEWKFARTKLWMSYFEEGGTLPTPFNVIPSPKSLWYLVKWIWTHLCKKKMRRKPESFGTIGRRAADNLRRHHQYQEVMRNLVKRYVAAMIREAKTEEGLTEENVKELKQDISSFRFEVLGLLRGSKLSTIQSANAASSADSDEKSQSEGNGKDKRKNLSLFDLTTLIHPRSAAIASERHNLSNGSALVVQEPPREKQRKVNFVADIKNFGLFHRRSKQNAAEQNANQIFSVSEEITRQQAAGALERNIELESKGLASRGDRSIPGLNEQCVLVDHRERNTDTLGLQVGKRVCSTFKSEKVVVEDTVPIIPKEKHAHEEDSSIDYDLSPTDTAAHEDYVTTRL

[3] = target: Nonstructural protein 1 (Influenza A virus, UniProt Q194T2); format: functional, Influenza A virus (A/California/07/2009(H1N1))
Chain of Nonstructural protein 1 (Q194T2 whole entry): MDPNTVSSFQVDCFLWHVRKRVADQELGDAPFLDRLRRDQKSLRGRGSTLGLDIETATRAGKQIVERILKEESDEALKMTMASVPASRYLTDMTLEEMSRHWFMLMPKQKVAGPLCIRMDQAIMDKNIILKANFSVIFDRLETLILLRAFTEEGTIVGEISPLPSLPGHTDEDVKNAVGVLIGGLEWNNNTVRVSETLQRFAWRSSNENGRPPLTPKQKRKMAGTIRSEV

[4] = alpha-synuclein stem-loop luciferase translation blockers – H4 neuroglioma cells, luminescence, confirmation (AID 1988); format: functional, cell-based
[5] = luciferase reporter signal suppression in cells – H4 neuroglioma cells, luminescence, dose response (AID 1990); format: functional, cell-based
[6] = Luminescence Cell-Based Dose Response HTS to Identify Inhibitors of 5'UTR Stem-Loop Driven Prion Protein mRNA Translation in H4 Neuroglioblastoma Cells. [Related pubchem assays: 1827 (Project Summary), 1813 (Primary HTS)]; format: functional
[7] = target: T2, Sentrin-specific protease 6 (Homo sapiens, UniProt Q9GZR1); test: SAR Analysis of small molecule inhibitors of Sentrin-specific protease 6 (SENP6) using a Luminescent assay. [Related pubchem assays (depositor defined):AID2582, AID2599]; format: functional
T2 sequence (Q9GZR1 whole entry): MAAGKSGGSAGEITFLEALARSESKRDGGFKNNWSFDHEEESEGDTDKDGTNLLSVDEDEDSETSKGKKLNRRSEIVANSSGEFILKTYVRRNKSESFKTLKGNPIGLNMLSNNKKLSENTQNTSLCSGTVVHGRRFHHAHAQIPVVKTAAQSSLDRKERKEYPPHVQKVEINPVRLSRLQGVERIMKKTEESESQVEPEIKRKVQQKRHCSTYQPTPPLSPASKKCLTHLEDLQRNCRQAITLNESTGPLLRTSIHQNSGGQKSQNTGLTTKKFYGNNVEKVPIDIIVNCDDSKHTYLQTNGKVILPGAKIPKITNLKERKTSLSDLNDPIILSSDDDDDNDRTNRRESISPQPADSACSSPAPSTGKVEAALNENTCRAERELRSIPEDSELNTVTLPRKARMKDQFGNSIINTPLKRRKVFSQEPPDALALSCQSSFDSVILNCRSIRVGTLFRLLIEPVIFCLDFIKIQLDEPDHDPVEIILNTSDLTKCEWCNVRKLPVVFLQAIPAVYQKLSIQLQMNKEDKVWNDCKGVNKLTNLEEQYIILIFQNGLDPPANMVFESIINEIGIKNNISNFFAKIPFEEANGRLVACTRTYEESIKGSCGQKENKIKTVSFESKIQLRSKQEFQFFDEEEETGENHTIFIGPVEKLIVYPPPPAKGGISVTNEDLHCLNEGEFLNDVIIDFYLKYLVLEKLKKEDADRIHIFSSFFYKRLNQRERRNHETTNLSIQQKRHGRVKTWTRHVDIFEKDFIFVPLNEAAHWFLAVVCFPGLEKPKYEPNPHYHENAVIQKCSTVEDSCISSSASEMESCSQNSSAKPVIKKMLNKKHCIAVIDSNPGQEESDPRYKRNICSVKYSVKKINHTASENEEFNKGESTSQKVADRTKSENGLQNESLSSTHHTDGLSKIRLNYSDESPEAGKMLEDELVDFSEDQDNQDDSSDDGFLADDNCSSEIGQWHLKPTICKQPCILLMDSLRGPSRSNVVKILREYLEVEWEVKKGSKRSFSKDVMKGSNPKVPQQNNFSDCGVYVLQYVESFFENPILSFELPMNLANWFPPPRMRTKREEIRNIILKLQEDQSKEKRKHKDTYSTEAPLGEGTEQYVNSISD

[8] = target: T3, Sentrin-specific protease 8 (Homo sapiens, UniProt Q96LD8); test: inhibition of human SENP8 cleavage activity – biochemical, luminescence, SAR follow-up (AID 504501); format: functional
T3 sequence (Q96LD8 whole entry): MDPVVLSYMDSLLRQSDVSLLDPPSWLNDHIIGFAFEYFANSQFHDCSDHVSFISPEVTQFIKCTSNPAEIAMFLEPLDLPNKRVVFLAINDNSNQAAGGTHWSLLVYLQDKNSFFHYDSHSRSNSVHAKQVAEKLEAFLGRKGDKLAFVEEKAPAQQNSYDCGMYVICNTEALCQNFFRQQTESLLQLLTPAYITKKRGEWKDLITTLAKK

[9] = target: T4, Sentrin-specific protease 7 (Homo sapiens, UniProt Q9BQF6); test: inhibition of human SENP7 cleavage activity – biochemical, luminescence, SAR follow-up (AID 504497); format: functional
T4 sequence (Q9BQF6 whole entry): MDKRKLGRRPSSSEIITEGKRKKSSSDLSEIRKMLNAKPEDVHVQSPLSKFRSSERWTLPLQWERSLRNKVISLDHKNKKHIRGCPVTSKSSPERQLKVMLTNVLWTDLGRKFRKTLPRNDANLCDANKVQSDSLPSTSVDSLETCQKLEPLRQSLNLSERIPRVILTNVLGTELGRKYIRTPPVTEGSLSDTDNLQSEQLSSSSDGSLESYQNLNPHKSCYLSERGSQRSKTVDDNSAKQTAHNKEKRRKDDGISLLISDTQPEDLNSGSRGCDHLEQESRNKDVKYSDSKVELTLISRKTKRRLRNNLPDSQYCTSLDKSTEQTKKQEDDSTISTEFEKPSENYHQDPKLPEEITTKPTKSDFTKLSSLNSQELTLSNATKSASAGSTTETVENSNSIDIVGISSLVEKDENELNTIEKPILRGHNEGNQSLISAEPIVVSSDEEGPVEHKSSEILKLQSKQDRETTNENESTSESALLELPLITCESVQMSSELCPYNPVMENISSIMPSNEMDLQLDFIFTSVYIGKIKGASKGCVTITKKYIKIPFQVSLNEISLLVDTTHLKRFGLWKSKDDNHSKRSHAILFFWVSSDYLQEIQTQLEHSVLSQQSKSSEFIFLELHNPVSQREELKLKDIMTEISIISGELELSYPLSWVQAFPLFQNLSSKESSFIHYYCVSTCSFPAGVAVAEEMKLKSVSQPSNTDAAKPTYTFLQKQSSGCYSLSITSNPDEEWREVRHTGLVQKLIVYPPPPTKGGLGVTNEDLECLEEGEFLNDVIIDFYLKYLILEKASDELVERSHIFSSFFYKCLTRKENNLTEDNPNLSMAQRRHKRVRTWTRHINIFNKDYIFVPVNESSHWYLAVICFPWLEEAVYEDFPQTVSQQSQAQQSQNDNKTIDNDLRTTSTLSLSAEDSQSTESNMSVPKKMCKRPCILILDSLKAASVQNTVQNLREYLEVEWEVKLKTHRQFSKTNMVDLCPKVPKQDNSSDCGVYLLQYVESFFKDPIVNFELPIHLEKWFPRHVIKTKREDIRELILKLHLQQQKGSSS

[10] = target: T5, Caspase-3 (Homo sapiens, UniProt P42574); test: SAR Analysis of small molecule inhibitors of Sentrin-specific proteases (SENPs) using a Caspase-3 Selectivity assay. [Related pubchem assays (depositor defined):AID2540, AID2599, AID434973, AID489001]; format: functional
T5 sequence (P42574 whole entry): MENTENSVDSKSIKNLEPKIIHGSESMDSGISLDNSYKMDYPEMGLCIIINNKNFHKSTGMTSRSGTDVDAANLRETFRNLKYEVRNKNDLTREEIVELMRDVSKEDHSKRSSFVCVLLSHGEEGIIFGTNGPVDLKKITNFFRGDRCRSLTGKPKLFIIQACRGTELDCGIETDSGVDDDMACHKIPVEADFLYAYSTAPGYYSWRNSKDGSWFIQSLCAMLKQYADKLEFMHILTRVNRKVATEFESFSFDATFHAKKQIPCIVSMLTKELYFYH

[11] = target: T6, Microphthalmia-associated transcription factor (Homo sapiens, UniProt O75030); test: reducers of TRPM1 reporter luminescence, concentration series – cell-based, SK-MEL-5, cherry-picked, set 3, MITF inhibitor project, dose response (AID 493073); format: functional;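 also: SK-MEL-5 melanoma cells with luciferase driven by the MITF target TRPM1 promoter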
T6 sequence (O75030 whole entry): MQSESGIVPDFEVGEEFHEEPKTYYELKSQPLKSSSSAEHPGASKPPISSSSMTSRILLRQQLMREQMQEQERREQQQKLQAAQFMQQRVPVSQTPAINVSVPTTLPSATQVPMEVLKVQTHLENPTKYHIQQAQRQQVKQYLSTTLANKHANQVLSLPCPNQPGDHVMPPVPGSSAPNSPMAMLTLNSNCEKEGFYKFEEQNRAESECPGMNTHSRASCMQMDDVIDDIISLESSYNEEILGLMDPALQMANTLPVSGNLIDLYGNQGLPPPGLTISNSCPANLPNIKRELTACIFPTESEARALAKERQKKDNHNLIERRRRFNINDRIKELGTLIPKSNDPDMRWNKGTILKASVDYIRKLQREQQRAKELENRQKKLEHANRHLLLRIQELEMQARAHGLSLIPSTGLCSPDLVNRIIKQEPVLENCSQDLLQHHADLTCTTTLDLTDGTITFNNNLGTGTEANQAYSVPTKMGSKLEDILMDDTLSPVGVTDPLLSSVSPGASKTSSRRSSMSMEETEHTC

For `Cc1ccccc1-c1nc(-c2ccc(NC(=O)c3ccc(Br)o3)cc2)no1`, the EC50 [1] was > 89.2 µM (inactive).

In the case of `CN1CCN(Cc2c[nH]nc2-c2ccc(F)cc2F)[C@@H](c2ccccc2)C1`, the EC50 [2] is reported as 4.22 µM (active).

In the case of `CCC1CCCCN1c1nc(-c2cccc(OC)c2O)nc2ccccc12` (stereo unspecified), the IC50 [3] is reported as > 100 µM (active).

For `OCCNc1nc2ccccc2n1CCN1CCCCC1`, the EC50 [2] was 3.35 µM (active).

With `O=C1C(=C(c2ccccc2)c2ccccc2)Nc2ccccc21` the IC50 [3] was 30.3 µM (active).

With `COC(=O)c1ccc(Nc2cc(C)nc3ccccc23)cc1` the EC50 [4] was 7.97 µM (active), the EC50 [2] was 3.76 µM (active) and the EC50 [5] was 11.6 µM (active). The EC50 [6] was 16.4 µM (active).

In the case of `c1csc(CNc2nc(-c3cccs3)nc3ccccc23)c1`, the EC50 [2] is reported as 4.73 µM (active).

In the case of `CCOC(=O)c1c(-c2ccc(Br)cc2)csc1NC(=O)C1CC1`, the IC50 [7] is reported as > 99 µM (inactive), the IC50 [8] is reported as > 99 µM (inactive) and the IC50 [9] is reported as > 99 µM (inactive). The IC50 [10] was > 99 µM (inactive).

In the case of `COc1ccc(CNC(=O)Nc2nc(C(N)Cc3ccc(C(F)(F)F)cc3)cs2)cc1` (stereo unspecified), the EC50 [1] is reported as > 89.2 µM (inactive).

With `CS(=O)(=O)c1ccc2nc(NC(=O)c3cccc(NS(=O)(=O)c4ccccc4)c3)sc2c1` the IC50 [7] was > 99 µM (inactive), the IC50 [8] was > 99 µM (inactive) and the IC50 [9] was > 99 µM (inactive). The IC50 [10] was > 99 µM (inactive).

For `COc1ccc(N/N=C/c2cn(Cc3ccccc3)c3ccccc23)cc1`, the IC50 [7] was > 99 µM (inactive), the IC50 [8] was > 99 µM (inactive) and the IC50 [9] was > 99 µM (inactive). For the same molecule, the IC50 [10] was > 99 µM (inactive).

With `Cc1ccc(S(=O)(=O)Nc2ccc3sc(NC(=O)c4ccccc4)nc3c2)cc1` the IC50 [7] was > 99 µM (inactive), the IC50 [8] was > 99 µM (inactive) and the IC50 [9] was > 99 µM (inactive). For the same molecule, the IC50 [10] was > 99 µM (inactive).

In the case of `COc1ccc(-c2cc(NC=O)c3ncc(-c4cccc(C(F)(F)F)c4)n3c2)cc1OC`, the EC50 [1] is reported as 12.4 µM (inactive).

In the case of `O=[N+]([O-])c1ccc(/C=N/N=C/c2ccc([N+](=O)[O-])o2)o1`, the AC50 [11] is reported as 9.36 µM (active).

For `C/C(=N\NC(=O)COc1cccc2ccccc12)c1cccs1`, the EC50 [1] was > 89.2 µM (inactive).

With `O=[N+]([O-])c1cccc(/C=N/c2cc3c(cc2Br)OCCO3)c1` the IC50 [3] was > 100 µM (active).
